Measured values reported in patent US20120202814A1, “COMPOUNDS WITH DDX3 INHIBITORY ACTIVITY AND USES THEREOF” (UNIVERSITÀ DEGLI STUDI DI SIENA, priority 2009, published 2012).
Read-outs that look alike come from different tables or passages of the source.

Experiments:
[1] = biological target: T1, human DDX3 (ATPase activity) (Homo sapiens, UniProt O00571); experiment: Human DDX3 ATPase activity assay (luciferase-based luminescence); type: biochemical; conditions: DDX3 ATPase activity; read-out: Ki (μM), apparent equilibrium dissociation constant for the inhibitor to the target enzyme DDX3
T1 construct: made in house; host or cells: E. coli
Description: ATPase activity was tested with a luciferase-based luminescence assay (Easylite-Kinase, Perkin Elmer) on 96 wells microtiter plates. Briefly, recombinant purified human DDX3 (50-100 ng) was incubated in a 15 μL total reaction volume with reaction buffer (25 mM TrisHCl pH 7.5, 5 mM MgCl2), in the presence of increasing amounts of ATP and/or different combinations of ATP and the inhibitor to be tested. Reference curves in the absence of inhibitor (giving the 100% of enzymatic activity) and in the absence of enzyme (giving the baseline), were also included in each experiment. Reading was performed with a Microbeta Trilux (Perkin Elmer) luminometer, according to the manufacturer's protocol.
ATPase reactions were performed as described, in the presence of increasing amounts of inhibitor and variable ATP concentrations. Variations of the initial velocities of the reaction as a function of ATP concentrations in the absence or presence of 4 were analyzed with the equation: […]
Variation of the % inhibition as a function of compound FE15 at different ATP concentrations were fitted to the equation for cooperative binding: […]
where Vmax is the apparent maximal rate of the reaction in the absence of the inhibitor, [I] is the variable inhibitor concentration, n is the cooperativity index and Ki(app) is the apparent inhibition constant. Comparatively, fitting was done with the same Eq. (2) where n was kept fixed at the value of 1 (non-cooperativity hypothesis). F test was used to compare the two fittings and p value was calculated.
Human recombinant DDX3 was cloned, expressed and purified as described (Franca et al. Proteins 2007, 67, 1128-37).
The anti-DDX3 activity of the compounds of the invention was evaluated by in vitro ATPase activity assay using the recombinant human DDX3 protein produced in E. coli. The potency of inhibition (Ki) for each molecule was calculated, representing the concentration of the inhibitor able to reduce the DDX3 ATPase activity by 50%

[2] = test system: cervical cancer HeLa cell line; experiment: Antiproliferative activity against HeLa cells (CellTiter viability assay); type: cell-based; conditions: Homo sapiens
Description: Selected compounds from Table 1 were tested against the cervical cancer HeLa cell line for antiproliferative activity. Cell viability was measured with the CellTiter viability assay (Table 2). Table 3 lists the calculated antiproliferative potencies (EC50, dose required to suppress 50% of cell viability) for a series of representative compounds of the invention.

T1 sequence (O00571 whole entry): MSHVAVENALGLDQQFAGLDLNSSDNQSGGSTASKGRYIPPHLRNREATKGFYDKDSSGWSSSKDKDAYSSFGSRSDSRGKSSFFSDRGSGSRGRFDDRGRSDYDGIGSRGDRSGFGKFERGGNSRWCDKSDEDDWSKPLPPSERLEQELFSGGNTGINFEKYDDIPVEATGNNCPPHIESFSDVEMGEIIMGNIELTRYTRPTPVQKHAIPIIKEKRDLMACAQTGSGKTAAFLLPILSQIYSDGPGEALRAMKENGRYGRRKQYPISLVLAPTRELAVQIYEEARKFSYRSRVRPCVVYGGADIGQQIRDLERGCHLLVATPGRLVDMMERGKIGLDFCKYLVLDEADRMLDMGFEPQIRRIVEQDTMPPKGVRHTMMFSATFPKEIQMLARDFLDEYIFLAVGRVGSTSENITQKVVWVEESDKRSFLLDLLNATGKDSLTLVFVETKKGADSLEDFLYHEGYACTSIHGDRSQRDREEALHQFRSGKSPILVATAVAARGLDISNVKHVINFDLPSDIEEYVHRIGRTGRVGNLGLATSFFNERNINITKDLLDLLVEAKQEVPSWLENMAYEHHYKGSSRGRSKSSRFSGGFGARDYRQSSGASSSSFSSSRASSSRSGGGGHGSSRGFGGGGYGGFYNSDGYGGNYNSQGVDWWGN

Compound | Ki [1] [µM] | melting point [°C] | other results
O=C(NCCN1C(=O)/C(=C/c2cccc(Br)c2)SC1=S)c1ccccc1O [Compound 3j, N-(2-((Z)-5-(3-Bromobenzylidene)-4-oxo-2-thioxothiazolidin-3-yl)ethyl)-2-hydroxybenzamide] | 4.2 | – | –
O=C(CCN1C(=O)C/C(=C\c2cccc(Br)c2)C1=O)Nc1ccccc1O [Compound 6b, 3-((E)-3-(3-bromobenzylidene)-2,5-dioxopyrrolidin-1-yl)-N-(2-hydroxyphenyl)propanamide] | 28 | – | –
CCCCN1C(=O)/C(=C/c2cccc(Br)c2)SC1=S [Compound 3e, (Z)-5-(3-bromobenzylidene)-3-butyl-2-thioxothiazolidin-4-one] | – | 113 to 115 | –
O=C(Oc1cccc(/C=N/Nc2nc(Nc3ccccc3)nc(N3CCOCC3)n2)c1)c1ccco1 [FE-56U] | 6.3 | – | –
COc1cccc(/C=C2\SC(=S)N(CCc3ccccc3)C2=O)c1 [Compound 3f, (Z)-5-(3-methoxybenzylidene)-3-phenethyl-2-thioxothiazolidin-4-one] | – | 122 to 125 | –
Clc1ccc(-c2ccc(/C=N/Nc3nc(Nc4ccccc4)nc(N4CCCCC4)n3)o2)cc1 [FE-56N] | 0.4 | – | EC50 ([2]; 48 hours, read-out: EC50 (μM) 48 hours, dose required to suppress 50% of cell viability): 25 µM; EC50 ([2]; 72 hours, read-out: EC50 (μM) 72 hours, dose required to suppress 50% of cell viability): 4 µM
COc1cccc(/C=C2\SC(=S)N(CCC(=O)Nc3ccccc3O)C2=O)c1 [Compound 35e, 3-((Z)-5-(3-Methoxybenzylidene)-4-oxo-2-thioxothiazolidin-3-yl)-N-(2-hydroxyphenyl) propanamide] | 10 | 200 to 202 | –
Fc1ccc(Nc2nc(N/N=C/c3cccc4ccccc34)nc(N3CCOCC3)n2)cc1 [Compound 11a, (E)-N-(4-fluorophenyl)-4-morpholino-6-(2-(naphthalen-1-ylmethylene)hydrazinyl)-1,3,5-triazin-2-amine] | 86 | 220 to 220.4 | –
COc1cc(/C=C2\SC(=S)N(CCC(=O)N3CCCc4ccccc43)C2=O)cc(OC)c1OC [FE-69] | 0.9 | – | –
O=C(CCN1C(=O)/C(=C/c2cc(F)cc(F)c2)SC1=S)Nc1ccccc1O [Compound 35c, 3-((Z)-5-(3,5-Difluorobenzylidene)-4-oxo-2-thioxothiazolidin-3-yl)-N-(2-hydroxyphenyl) propanamide] | 0.5 | 235 to 237 | –
Oc1ccccc1/C=N/Nc1nc(NCc2cccc(Cl)c2)nc(N2CCOCC2)n1 [Compound 15j, (E)-2-((2-(4-(3-chlorobenzylamino)-6-morpholino-1,3,5-triazin-2-yl)hydrazono)methyl)phenol] | 62 | 163.5 to 164 | –
CC(=O)Nc1ccc(/C(C)=N/Nc2nc(NCc3ccccc3)nc(N3CCOCC3)n2)cc1 [FE-56AN] | 0.5 | – | –
O=C1/C(=C/c2ccc3ccccc3c2)SC(=S)N1CCc1ccccc1 [Compound 3i, (Z)-5-((naphthalen-3-yl)methylene)-3-phenethyl-2-thioxothiazolidin-4-one] | – | 174 to 176 | –
Clc1ccccc1-c1ccc(/C=N/Nc2nc(Nc3ccccc3)nc(N3CCOCC3)n2)o1 [FE-56AA] | 3.2 | – | –
COc1ccc(/C=C2\SC(=S)N(CCC(=O)Nc3ccccc3C(=O)O)C2=O)cc1 [FE-77] | 2 | – | –
O=C1/C(=C/c2cccc(Br)c2)SC(=S)N1CCc1ccccc1 [Compound 3a, (Z)-5-(3-bromobenzylidene)-3-phenethyl-2-thioxothiazolidin-4-one] | – | 102 to 104 | –
COc1ccc(Nc2nc(NCc3ccco3)nc(N/N=C/c3ccc(-c4ccccc4[N+](=O)[O-])o3)n2)cc1 [FE-56Z] | 1.9 | – | –
Fc1ccc(Nc2nc(N/N=C/c3ccc4ccccc4c3)nc(N3CCOCC3)n2)cc1 [Compound 11b, (E)-N-(4-fluorophenyl)-4-morpholino-6-(2-(naphthalen-2-ylmethylene)hydrazinyl)-1,3,5-triazin-2-amine] | 8.5 | 225 to 226 | –
Fc1ccc(Nc2nc(N/N=C/c3c(F)cccc3F)nc(N3CCOCC3)n2)cc1 [Compound 11c, (E)-4-(2-(2,6-difluorobenzylidene)hydrazinyl)-N-(4-fluorophenyl)-6-morpholino-1,3,5-triazin-2-amine] | 2.6 | 155.5 to 156 | –
CC(=O)Nc1ccc(/C(C)=N/Nc2nc(Nc3ccccc3)nc(N3CCOCC3)n2)cc1 [FE-56AI] | 2.2 | – | –

Compound | Ki [1] [µM] | melting point [°C] | other results
O=C1/C(=C/c2ccco2)SC(=S)N1CCc1ccccc1 [Compound 3g, (Z)-5-((furan-2-yl)methylene)-3-phenethyl-2-thioxothiazolidin-4-one] | – | 150 to 152 | –
O=C(CCN1C(=O)/C(=C/c2ccc3c(c2)OCO3)SC1=S)Nc1ccccc1O [Compound 35f, 3-((Z)-5-((Benzo[d][1,3]dioxol-5-yl)methylene)-4-oxo-2-thioxothiazolidin-3-yl)-N-(2-hydroxyphenyl)propanamide] | 1 | 240 to 241 | –
Clc1ccc(/C=N/Nc2nc(Nc3ccccc3)nc(Nc3ccccc3)n2)cc1Cl [FE-56O] | 18 | – | –
C#CN1C(=O)/C(=C/c2cccc(Br)c2)SC1=S [Compound 3c, (Z)-5-(3-bromobenzylidene)-3-ethynyl-2-thioxothiazolidin-4-one] | – | 159 to 161 | –
O=C1Nc2ccccc2/C1=N\Nc1nc(Nc2cccc(Cl)c2)nc(N2CCOCC2)n1 [FE-56AD] | 2 | – | –
COc1cc(/C=C2\SC(=S)N(CCC(=O)Nc3ccccc3O)C2=O)cc(OC)c1OC [FE-74] | 0.1 | – | –
O=C1/C(=C/c2cccnc2)SC(=S)N1CCc1ccccc1 [Compound 3h, (Z)-3-phenethyl-5-((pyridin-3-yl)methylene)-2-thioxothiazolidin-4-one] | – | 138 to 140 | –
O=C(CCN1C(=O)/C(=C/c2ccc3c(c2)OCO3)SC1=S)Nc1ccccc1C(=O)O [FE-70] | 0.4 | – | –
O=[N+]([O-])c1ccc(Cl)c(-c2ccc(/C=N/Nc3nc(Nc4ccc(F)cc4)nc(N4CCOCC4)n3)o2)c1 [FE-56V] | 3.6 | – | –
O=C(NCCN1C(=O)/C(=C/c2cccc(F)c2)SC1=S)c1ccccc1O [Compound 3k, N-(2-((Z)-5-(3-Fluorobenzylidene)-4-oxo-2-thioxothiazolidin-3-yl)ethyl)-2-hydroxy-benzamide] | 4.3 | – | –
O=C1Nc2ccccc2/C1=N/Nc1nc(NCc2cccc(Cl)c2)nc(N2CCOCC2)n1 [Compound 14f, (Z)-3-(2-(4-(3-Chlorobenzylamino)-6-morpholino-1,3,5-triazin-2-yl)hydrazono)indolin-2-one] | 2.9 | 144 to 144.5 | –
O=C1/C(=C/c2cccc(Br)c2)SC(=S)N1Cc1ccccc1 [Compound 3b, (Z)-5-(3-bromobenzylidene)-3-benzyl-2-thioxothiazolidin-4-one] | – | 112 to 113 | –
OCCc1cc(Nc2ccc(F)cc2)nc(N/N=C/c2ccccc2O)n1 [Compound 22, 2-((2-(4-(4-Fluorophenylamino)-6-(2-hydroxyethyl)pyrimidin-2-yl)hydrazono)methyl)phenol] | 9 | – | –
Cc1cccc(/C=C2\SC(=S)N(CCC(=O)Nc3ccccc3O)C2=O)c1 [Compound 35d, 3-((Z)-5-(3-Methylbenzylidene)-4-oxo-2-thioxothiazolidin-3-yl)-N-(2-hydroxyphenyl) propanamide] | 97 | 208 to 209 | –
O=C(CCN1C(=O)/C(=C/c2cccc(Br)c2)SC1=S)Nc1ccccc1[N+](=O)[O-] [Compound 35g, 3-((Z)-5-(3-Bromobenzylidene)-4-oxo-2-thioxothiazolidin-3-yl)-N-(2-nitrophenyl)propanamide] | 8.7 | 204 to 206 | –
Cc1ccc(Nc2nc(N/N=C3/C(=O)Nc4ccccc43)nc(N3CCOCC3)n2)cc1Cl [FE-56AH] | 3.2 | – | –
Oc1ccc(/C=N/Nc2nc(Nc3ccccc3)nc(Nc3ccccc3)n2)c(O)c1 [FE-56I] | 33 | – | –
COC(CN1C(=O)/C(=C/c2cccc(Br)c2)SC1=S)OC [Compound 3d, (Z)-5-(3-bromobenzylidene)-3-(2,2-dimethoxyethyl)-2-thioxothiazolidin-4-one] | – | 124 to 126 | –
Cc1ccc(Nc2nc(N/N=C/c3ccccc3O)nc(N3CCOCC3)n2)cc1Cl [FE-56AM] | 1.6 | – | –
O=C(CCN1C(=O)/C(=C/c2cccc(F)c2)SC1=S)Nc1ccccc1[N+](=O)[O-] [Compound 35h, 3-((Z)-5-(3-Fluorobenzylidene)-4-oxo-2-thioxothiazolidin-3-yl)-N-(2-nitrophenyl)propanamide] | 7.6 | 207 to 208 | –
